Reference: US20020137929A1, “1 - (3-heterocyclylphenyl) isothiourea, -isourea, -guanidine and -amidine herbicidal agents” (Intellectual Property Department, BASF Aktiengesellschaft, priority 1998, published 2002)

How the values were obtained:
ABUTH (Velvetleaf) [1] = test: Postemergence herbicidal evaluation; type: in vivo, Abutilon theophrasti
In short: (§1)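 Two-week-old seedlings sprayed with compound in 50/50 acetone/water plus 0.5% TWEEN 20, at about 0.0156 to 0.500 kg/ha, nozzle at 40 psi. Kept in greenhouse; rated visually 4-5 weeks after treatment on a 0-9 scale versus control, repeat tests averaged.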

[2] = test system: CHEAL (Lambsquarters, Common); test: Postemergence herbicidal evaluation; type: in vivo, Chenopodium album
In short: as §1

[3] = test system: IPOHE (Morningglory, Ivyleaf); test: Postemergence herbicidal evaluation; type: in vivo, Ipomoea hederacea
In short: as §1

ECHCG (Barnyardgrass) [4] = test: Postemergence herbicidal evaluation; type: in vivo, Echinochloa crus-galli
In short: as §1

SETVI (Foxtail, Green) = test: Postemergence herbicidal evaluation; type: in vivo, Setaria viridis
In short: as §1

ORYSAT (Rice, Tebonnet) = test: Postemergence herbicidal evaluation; type: in vivo, Oryza sativa, (L.) Tebonnet
In short: as §1

ZEAMX (Corn, Field) [5] = test: Postemergence herbicidal evaluation; type: in vivo, Zea mays
In short: as §1

ABUTH (Velvetleaf) [6] = test: Preemergence herbicidal evaluation; type: in vivo, Abutilon theophrasti; conditions: rated 4-5 weeks after treatment
In short: (§2)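 Herbicidal effect scored visually, 0-9, at 4 to 5 weeks against a control; compound applied preemergence by aqueous acetone spray to seeded soil at about 0.0156 to 0.500 kg/ha.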

CASOB (Sicklepod) = test: Preemergence herbicidal evaluation; type: in vivo, Cassia obtusifolia; conditions: rated 4-5 weeks after treatment
In short: as §2

[7] = test system: CHEAL (Lambsquarters, Common); test: Preemergence herbicidal evaluation; type: in vivo, Chenopodium album; conditions: rated 4-5 weeks after treatment
In short: as §2

[8] = test system: IPOHE (Morningglory, Ivyleaf); test: Preemergence herbicidal evaluation; type: in vivo, Ipomoea hederacea; conditions: rated 4-5 weeks after treatment
In short: as §2

ECHCG (Barnyardgrass) [9] = test: Preemergence herbicidal evaluation; type: in vivo, Echinochloa crus-galli; conditions: rated 4-5 weeks after treatment
In short: as §2

[10] = test system: GLXMAW (Soybean, Williams); test: Preemergence herbicidal evaluation; type: in vivo, Glycine max, (L.) Merr. cv Williams; conditions: rated 4-5 weeks after treatment
In short: as §2

[11] = test system: TRZAWR (Wheat, Winter, cv Riband); test: Preemergence herbicidal evaluation; type: in vivo, Triticum aestivum; conditions: rated 4-5 weeks after treatment
In short: as §2

ZEAMX (Corn, Field) [12] = test: Preemergence herbicidal evaluation; type: in vivo, Zea mays; conditions: rated 4-5 weeks after treatment
In short: as §2

CYPIR (Rice Flatsedge) = test: Postemergence weed control under flooded paddy conditions; type: in vivo, Cyperus iria; conditions: postemergence weeds, 3-4 weeks after treatment
In short: (§3)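 Flood-water application, about 0.0313–0.500 kg/ha a.i. in aqueous/acetone 50/50 v/v; water depth 1.5–3 cm throughout. Weeds 3–5 cm, rice 1.5–2.5 leaf. Greenhouse; 0–9 visual rating vs control at 3–4 wk.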

CYPSE (Flatsedge) = test: as above; type: in vivo, Cyperus serotinus; conditions: postemergence weeds, 3-4 weeks after treatment
In short: as §3

CCOC(=O)CN1C(=O)C(CC(=O)O)O/C1=N/c1cc(-n2c(=O)cc(C(F)(F)F)n(C)c2=O)c(F)cc1Cl (stereo not drawn) [Compound 41, 2-{{2-Chloro-5-[3,6-dihydro-3-methyl-2,6-dioxo-4-(trifluoromethyl)-1(2H)-pyrimidinyl]-4-fluoro-phenyl}imino}-4-oxo-3,5-oxazolidinediacetic acid, 3-ethyl ester]
3.5: Postemergence herbicidal rating ORYSAT (ORYSAT (Rice, Tebonnet); Rate 0.0315 kg/ha) | Postemergence herbicidal rating ORYSAT (ORYSAT (Rice, Tebonnet); Rate 0.0630 kg/ha)
8.0: Postemergence herbicidal rating ZEAMX (ZEAMX (Corn, Field) [5]; Rate 0.0315 kg/ha)
6.0: Preemergence herbicidal rating GLXMAW ([10]; rate 0.2500 kg/ha)
3.0: Postemergence herbicidal rating CHEAL ([2]; Rate 0.0158 kg/ha) | Postemergence herbicidal rating SETVI (SETVI (Foxtail, Green); Rate 0.0315 kg/ha) | Preemergence herbicidal rating GLXMAW ([10]; rate 0.0625 kg/ha)
1.0: Postemergence herbicidal rating SETVI (SETVI (Foxtail, Green); Rate 0.0158 kg/ha) | Preemergence herbicidal rating GLXMAW ([10]; rate 0.0313 kg/ha) | Preemergence herbicidal rating ZEAMX (ZEAMX (Corn, Field) [12]; rate 0.0625 kg/ha)
9.0: Postemergence herbicidal rating ABUTH (ABUTH (Velvetleaf) [1]; Rate 0.0158 kg/ha) | Postemergence herbicidal rating ABUTH (ABUTH (Velvetleaf) [1]; Rate 0.0315 kg/ha) | Postemergence herbicidal rating ABUTH (ABUTH (Velvetleaf) [1]; Rate 0.0630 kg/ha) | Postemergence herbicidal rating CHEAL ([2]; Rate 0.0630 kg/ha) | Postemergence herbicidal rating IPOHE ([3]; Rate 0.0158 kg/ha) | Postemergence herbicidal rating IPOHE ([3]; Rate 0.0315 kg/ha) | Postemergence herbicidal rating IPOHE ([3]; Rate 0.0630 kg/ha) | Postemergence herbicidal rating ECHCG (ECHCG (Barnyardgrass) [4]; Rate 0.0630 kg/ha) | Postemergence herbicidal rating SETVI (SETVI (Foxtail, Green); Rate 0.0630 kg/ha) | Preemergence herbicidal rating ABUTH (ABUTH (Velvetleaf) [6]; rate 0.0313 kg/ha) | Preemergence herbicidal rating ABUTH (ABUTH (Velvetleaf) [6]; rate 0.0625 kg/ha) | Preemergence herbicidal rating ABUTH (ABUTH (Velvetleaf) [6]; rate 0.1250 kg/ha) | Preemergence herbicidal rating ABUTH (ABUTH (Velvetleaf) [6]; rate 0.2500 kg/ha) | Preemergence herbicidal rating CASOB (CASOB (Sicklepod); rate 0.1250 kg/ha) | Preemergence herbicidal rating CASOB (CASOB (Sicklepod); rate 0.2500 kg/ha) | Preemergence herbicidal rating CHEAL ([7]; rate 0.0625 kg/ha) | Preemergence herbicidal rating CHEAL ([7]; rate 0.1250 kg/ha) | Preemergence herbicidal rating CHEAL ([7]; rate 0.2500 kg/ha) | Preemergence herbicidal rating IPOHE ([8]; rate 0.1250 kg/ha) | Preemergence herbicidal rating IPOHE ([8]; rate 0.2500 kg/ha)
4.0: Preemergence herbicidal rating CHEAL ([7]; rate 0.0313 kg/ha) | Herbicidal rating CYPIR (CYPIR (Rice Flatsedge); rate 0.2500 kg/ha)
0.0: Preemergence herbicidal rating CASOB (CASOB (Sicklepod); rate 0.0156 kg/ha) | Preemergence herbicidal rating CASOB (CASOB (Sicklepod); rate 0.0313 kg/ha) | Preemergence herbicidal rating CASOB (CASOB (Sicklepod); rate 0.0625 kg/ha) | Preemergence herbicidal rating CHEAL ([7]; rate 0.0156 kg/ha) | Preemergence herbicidal rating IPOHE ([8]; rate 0.0156 kg/ha) | Preemergence herbicidal rating IPOHE ([8]; rate 0.0313 kg/ha) | Preemergence herbicidal rating ECHCG (ECHCG (Barnyardgrass) [9]; rate 0.0156 kg/ha) | Preemergence herbicidal rating ECHCG (ECHCG (Barnyardgrass) [9]; rate 0.0313 kg/ha) | Preemergence herbicidal rating ECHCG (ECHCG (Barnyardgrass) [9]; rate 0.0625 kg/ha) | Preemergence herbicidal rating ECHCG (ECHCG (Barnyardgrass) [9]; rate 0.1250 kg/ha) | Preemergence herbicidal rating GLXMAW ([10]; rate 0.0156 kg/ha) | Preemergence herbicidal rating TRZAWR ([11]; rate 0.0156 kg/ha) | Preemergence herbicidal rating TRZAWR ([11]; rate 0.0313 kg/ha) | Preemergence herbicidal rating TRZAWR ([11]; rate 0.0625 kg/ha) | Preemergence herbicidal rating TRZAWR ([11]; rate 0.1250 kg/ha) | Preemergence herbicidal rating TRZAWR ([11]; rate 0.2500 kg/ha) | Preemergence herbicidal rating ZEAMX (ZEAMX (Corn, Field) [12]; rate 0.0156 kg/ha) | Preemergence herbicidal rating ZEAMX (ZEAMX (Corn, Field) [12]; rate 0.0313 kg/ha) | Preemergence herbicidal rating ZEAMX (ZEAMX (Corn, Field) [12]; rate 0.1250 kg/ha) | Herbicidal rating CYPIR (CYPIR (Rice Flatsedge); rate 0.0313 kg/ha) | Herbicidal rating CYPIR (CYPIR (Rice Flatsedge); rate 0.0625 kg/ha) | Herbicidal rating CYPIR (CYPIR (Rice Flatsedge); rate 0.1250 kg/ha) | Herbicidal rating CYPSE (CYPSE (Flatsedge); rate 0.0313 kg/ha) | Herbicidal rating CYPSE (CYPSE (Flatsedge); rate 0.0625 kg/ha)
2.0: Postemergence herbicidal rating ECHCG (ECHCG (Barnyardgrass) [4]; Rate 0.0158 kg/ha) | Preemergence herbicidal rating ECHCG (ECHCG (Barnyardgrass) [9]; rate 0.2500 kg/ha) | Preemergence herbicidal rating GLXMAW ([10]; rate 0.1250 kg/ha) | Preemergence herbicidal rating ZEAMX (ZEAMX (Corn, Field) [12]; rate 0.2500 kg/ha) | Herbicidal rating CYPSE (CYPSE (Flatsedge); rate 0.1250 kg/ha)
2.5: Postemergence herbicidal rating ORYSAT (ORYSAT (Rice, Tebonnet); Rate 0.0158 kg/ha)
7.5: Postemergence herbicidal rating ZEAMX (ZEAMX (Corn, Field) [5]; Rate 0.0630 kg/ha)
7.0: Postemergence herbicidal rating CHEAL ([2]; Rate 0.0315 kg/ha) | Postemergence herbicidal rating ECHCG (ECHCG (Barnyardgrass) [4]; Rate 0.0315 kg/ha) | Postemergence herbicidal rating ZEAMX (ZEAMX (Corn, Field) [5]; Rate 0.0158 kg/ha) | Preemergence herbicidal rating ABUTH (ABUTH (Velvetleaf) [6]; rate 0.0156 kg/ha) | Preemergence herbicidal rating IPOHE ([8]; rate 0.0625 kg/ha) | Herbicidal rating CYPSE (CYPSE (Flatsedge); rate 0.2500 kg/ha)
